Test results taken from ChEMBL document CHEMBL1201862, “PubChem BioAssay data set” (2004).
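Compound exposure: 48 hours, 5 concentrations, 96-well plates. Here, GI50 denotes the concentration required for 50% inhibition of growth.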 Active and inactive are the calls of the source. No stated cut-off is given here; in the data, active = GI50 up to about 1.1 µM and inactive = higher.

Tests used:
Test in all cases: NCI-60 cell line screen, 48 h
EKVX = system: EKVX
HCC 2998 = system: HCC 2998
HCT-116 = system: HCT-116
MOLT-4 = system: MOLT-4
Malme-3M = system: Malme-3M
OVCAR-4 = system: OVCAR-4
SF-295 = system: SF-295
SF-539 = system: SF-539
SK-MEL-28 = system: SK-MEL-28
SK-MEL-5 = system: SK-MEL-5
SNB-19 = system: SNB-19
TK-10 = system: TK-10
U-251 = system: U-251
UACC-257 = system: UACC-257
HL-60 = system: HL-60

Measured: GI50

CCOc1ccc(NC(=O)C(=O)CC(=O)C2=C(C)Nc3ccccc3S2)cc1
inactive: EKVX > 50 µM | HCC 2998 > 50 µM | HCT-116 > 50 µM | MOLT-4 > 50 µM | Malme-3M > 50 µM | OVCAR-4 > 50 µM | SF-295 > 50 µM | SF-539 > 50 µM | SK-MEL-28 > 50 µM | SK-MEL-5 > 50 µM | SNB-19 > 50 µM | TK-10 > 50 µM | U-251 > 50 µM | UACC-257 > 50 µM

C#CC[N+](C)(CC#C)CC#C
inactive: EKVX > 100 µM | HCC 2998 > 100 µM | HL-60 > 100 µM | MOLT-4 > 100 µM | Malme-3M > 100 µM | OVCAR-4 > 100 µM | SF-295 > 100 µM | SK-MEL-28 > 100 µM | SK-MEL-5 > 100 µM | SNB-19 > 100 µM | TK-10 > 100 µM | UACC-257 > 100 µM

CCc1ccccc1-n1c2nc(=O)n(C)c(=O)c-2nc2ccccc21
inactive: EKVX 12.1 µM | HCC 2998 11.1 µM | HCT-116 12.6 µM | MOLT-4 13.2 µM | Malme-3M 5.7 µM | OVCAR-4 4.89 µM | SF-295 11.5 µM | SF-539 14.1 µM | SK-MEL-5 4.29 µM | SNB-19 10.8 µM | TK-10 8.95 µM | U-251 16 µM | UACC-257 5.11 µM

CCOC(=O)c1ccc(/N=C\c2ccc(N(CCC#N)CCC#N)cc2)cc1
inactive: EKVX > 100 µM | HCT-116 48 µM | HL-60 80.9 µM | MOLT-4 32.4 µM | Malme-3M > 100 µM | OVCAR-4 41.6 µM | SF-295 > 100 µM | SF-539 45.5 µM | SK-MEL-28 > 100 µM | SK-MEL-5 78.3 µM | SNB-19 > 100 µM | TK-10 39.6 µM | UACC-257 > 100 µM

CC(=O)NNc1nc(C)c(C(=O)/C=C/c2ccc(N(C)C)cc2)s1
inactive: EKVX > 100 µM | HCC 2998 > 100 µM | HL-60 > 100 µM | MOLT-4 > 100 µM | Malme-3M > 100 µM | SF-295 > 100 µM | SF-539 > 100 µM | SK-MEL-28 > 100 µM | SK-MEL-5 > 100 µM | TK-10 > 100 µM | U-251 > 100 µM | UACC-257 > 100 µM

O/N=C1/C(=C/c2ccc(Br)cc2)CCCC1C(NO)c1ccc(Br)cc1 (configuration not stated)
inactive: EKVX > 10 µM | HCT-116 16.5 µM | HL-60 > 100 µM | MOLT-4 8.32 µM | Malme-3M 15.7 µM | OVCAR-4 10.4 µM | SF-295 16.7 µM | SF-539 22.4 µM | SK-MEL-28 18.6 µM | SNB-19 15.8 µM | TK-10 18.3 µM | U-251 18.9 µM | UACC-257 17.5 µM
